Source: US20110263552A1, “MODULATION OF SIDE EFFECT PROFILE OF 5-ALPHA REDUCTASE INHIBITOR THERAPY” (SOV Therapeutics, priority 2009, published 2011)
Marks after values point to notes of the source that are not given here.

Key:
[1] = system: Male Sprague-Dawley rats; assay: Organ weights in rats after 14 days of dosing (Example 9); assay type: in vivo
Text: The organ weights obtained from Bramson et al. are given in the right-hand column of the table for reference (Bramson, H. N., Journal of Pharmacology and Experimental Therapeutics, 1496-1502, (1997).)

[2] = Testosterone undecanoate (TU) solubility in various solubilizers
[3] = oral 200 mg twice daily, cited from earlier work
[4] = system: absorption of cholesterol; details: ingestion of 1 g; meal containing 500 mg of cholesterol; cited from earlier work
[5] = male Sprague-Dawley rats, 80 mg/kg/day TU, without or with 1 mg/kg/day D

SMILES: CCCCCCCCCCC(=O)O[C@H]1CC[C@H]2[C@@H]3CCC4=CC(=O)CC[C@]4(C)[C@H]3CC[C@]12C [TU, testosterone undecanoate]
- Body weight, Mean [1, 5]: 284 g
- Seminal vesicles weight, Mean [1, 5]: 0.902 grams
- Testicles weight, Mean [1, 5]: 3.374 grams
- Ventral prostate weight, Mean [1, 5]: 0.22 grams
- Difference in organ weight versus vehicle-only ([1]; rats, any organ measured): No significant differences in weight
- TU Solubility ([2]; vehicle Acconon CO-7, at 37 C.): 59 mg/g
- TU Solubility ([2]; vehicle Canola oil, at 37 C.): 167 mg/g
- TU Solubility ([2]; vehicle Capmul MCM, determined at 25° C.): >100* mg/g
- TU Solubility ([2]; vehicle Capmul PG-8, determined at 25° C.): >100* mg/g
- TU Solubility ([2]; vehicle Caprylic acid, at 37 C.): 595 mg/g
- TU Solubility ([2]; vehicle Castor oil, at 37 C.): 218 mg/g
- TU Solubility ([2]; vehicle Corn oil, at 37 C.): 243 mg/g
- TU Solubility ([2]; vehicle Cremophor RH40, determined at 25° C.): 88* mg/g
- TU Solubility ([2]; vehicle Crodamol EO (ethyl oleate), at 37 C.): 221 mg/g
- TU Solubility ([2]; vehicle Crodamol IPM (isopropyl myristate), at 37 C.): 295 mg/g
- TU Solubility ([2]; vehicle Crodamol IPP (isopropyl palmitate), at 37 C.): 215 mg/g
- TU Solubility ([2]; vehicle Ethyl linoleate, at 37 C.): 230 mg/g
- TU Solubility ([2]; vehicle Glyceryl monooleate or GMO (Peceol (Gattefosse)), at 37 C.): 323 mg/g
- TU Solubility ([2]; vehicle Glyceryl ricinoleate (Softigen 701), at 37 C.): 261 mg/g
- TU Solubility ([2]; vehicle Glyceryl trioleate (Capmul GTO), at 37 C.): 154 mg/g
- TU Solubility ([2]; vehicle Incromega E7010 (omega-3), at 37 C.): 247 mg/g
- TU Solubility ([2]; vehicle Incromega TG7010 SR (omega-3 high purity), at 37 C.): 225 mg/g
- TU Solubility ([2]; vehicle Labrafil M 2125 CS, at 37 C.): 257 mg/g
- TU Solubility ([2]; vehicle Labrasol, determined at 25° C.): 43* mg/g
- TU Solubility ([2]; vehicle Linoleic acid, at 37 C.): 391 mg/g
- TU Solubility ([2]; vehicle Linolenic acid, at 37 C.): 162 mg/g
- TU Solubility ([2]; vehicle Maisine 35-1, at 37 C.): 93 mg/g
- TU Solubility ([2]; vehicle Miglyol 812, determined at 25° C.): >100* mg/g
- TU Solubility ([2]; vehicle N-methyl pyrolidone, at 37 C.): >500 mg/g
- TU Solubility ([2]; vehicle Oleic acid, at 37 C.): 405 mg/g
- TU Solubility ([2]; vehicle Omega-3 ethyl esters w/antioxidant (AMRI), at 37 C.): 261 mg/g
- TU Solubility ([2]; vehicle Omega-3 ethyl esters w/o antioxidant (AMRI), at 37 C.): 360 mg/g
- TU Solubility ([2]; vehicle Polyglyceryl-3-diisostearate (Plurol diisosterique), at 37 C.): 173 mg/g
- TU Solubility ([2]; vehicle Polyglyceryl-3-dioleate (Plurol oleique CC497), at 37 C.): 193 mg/g
- TU Solubility ([2]; vehicle Polyglyceryl-6-dioleate (Caprol MPGO, Abitec), at 37 C.): 184 mg/g
- TU Solubility ([2]; vehicle Polysorbate 80 (Tween 80), determined at 25° C.): 39* mg/g
- TU Solubility ([2]; vehicle Polysorbate 85, at 37 C.): 125 mg/g
- TU Solubility ([2]; vehicle Propylene glycol monocaprylate (Capryol 90, Gattefosse), at 37 C.): 486 mg/g
- TU Solubility ([2]; vehicle Propylene glycol monolaurate, determined at 25° C.): >200* mg/g
- TU Solubility ([2]; vehicle Rapeseed oil, at 37 C.): 123 mg/g
- TU Solubility ([2]; vehicle Ricinoleic acid, at 37 C.): 244 mg/g
- TU Solubility ([2]; vehicle Safflower oil, at 37 C.): 124 mg/g
- TU Solubility ([2]; vehicle Span 80, at 37 C.): 289 mg/g
- TU Solubility ([2]; vehicle Sunflower oil, at 37 C.): 105 mg/g
- TU Solubility ([2]; vehicle Transcutol HP, at 37 C.): 180 mg/g
- TU Solubility ([2]; vehicle dl-alpha-tocopherol, at 37 C.): 527 mg/g

SMILES: C[C@]12CC[C@H]3[C@@H](CCC4=CC(=O)CC[C@@]43C)[C@@H]1CC[C@@H]2O [micronized testosterone, testosterone]
- time at desired level of serum testosterone for each peak ([3]; Daggett et al.): about 4 hours
- time of total serum testosterone within the normal range ([3]; Føgh et al.): greater than 12 hours

SMILES: CC[C@H](CC[C@@H](C)[C@H]1CC[C@H]2[C@@H]3CC=C4C[C@@H](O)CC[C@]4(C)[C@H]3CC[C@]12C)C(C)C [β-sitosterol]
- reduction of absorption of cholesterol [4]: 42%
